What was measured:
Assay type in all cases: cell-based, human
[1] = system: Target C; test: HiBiT protein abundance assay, Target C; settings: Homo sapiens, K562, 24 h, Table 13A, modified K562 cells
Outline: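 Knock-in HiBiT clones, 10000/well; 10-pt 3-fold titration, top 10 μM final; DMSO ≤0.25%; 24 h, 37 °C, 5% CO2. Lytic HiBiT luminescence readout. 4PL fit, IC50 = concentration giving 50% of untreated abundance.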

[2] = system: SMN2; test: Splicing RT-qPCR panel, SMN2 canonical junction (CJ) mRNA; settings: Homo sapiens, RT-qPCR panel, canonical junction mRNA; compound concentration having 50% response in CJ decrease; read-out: SMN2 IC50 (decrease in CJ mRNA levels)
Outline: (§1)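 First, A673 cells adhered 24 h, while K562 cells were plated directly. Next, compounds were added as an 11-point 3-fold series from 10 uM for 24 h. Finally, lysates went to RT-qPCR, with 2^(−ΔΔCt) values converted to percentage response.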

[3] = system: MYB; test: Splicing RT-qPCR assay, MYB mRNA canonical junction (CJ) and alternative junction (AJ); settings: Homo sapiens; for AC50: increase in AJ mRNA
Outline: as §1

[4] = system: Target C; test: Splicing RT-qPCR panel, Target C canonical junction (CJ) mRNA; settings: Homo sapiens, RT-qPCR panel, canonical junction mRNA; compound concentration having 50% response in CJ decrease; read-out: Target C IC50 (decrease in CJ mRNA levels)
Outline: as §1

[5] = system: MYB; test: HiBiT protein abundance assay, MYB; settings: Homo sapiens, K562, 24 h, Table 13A, modified K562 cells
Outline: (§2)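 Luminescent readout from lytic HiBiT/LgBiT complementation reports endogenous tagged protein level in engineered K562 cells. Compounds dosed 24 h, top 10 μM final, 3-fold steps, 10 points. IC50 is the concentration giving 50% of untreated-control abundance, from 4-parameter logistic fit.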

[6] = system: HTT; test: Splicing RT-qPCR assay, HTT mRNA canonical junction (CJ) and alternative junction (AJ); settings: Homo sapiens; for AC50: increase in AJ mRNA
Outline: as §1

[7] = system: HTT; test: HiBiT protein abundance assay, HTT; settings: Homo sapiens, K562, 24 h, Table 13A, modified K562 cells
Outline: as §2

[8] = 24 h, decrease in CJ mRNA, A673 or K562 cells, 24 hours treatment, RT-qPCR, read-out: MYB CJ IC50
[9] = 24 h, A673 or K562 cells, 24 hours treatment, RT-qPCR
[10] = RT-qPCR panel, canonical junction mRNA, compound concentration having 50% response in CJ decrease, read-out: MYB IC50 (decrease in CJ mRNA levels)
[11] = 24 h, decrease in CJ mRNA, A673 or K562 cells, 24 hours treatment, RT-qPCR, read-out: HTT CJ IC50
[12] = RT-qPCR panel, canonical junction mRNA, compound concentration having 50% response in CJ decrease, read-out: HTT IC50 (decrease in CJ mRNA levels)

c1nc2c(-c3cn[nH]c3)ccc(-c3ccc(N4CC5(CCNCC5)C4)nn3)c2s1 [Compound 197]
> 10 µM: IC50 [3, 8] | AC50 [3, 9] | IC50 [3, 10] | IC50 [4]
1 to 10 µM: IC50 [1] | IC50 [2] | IC50 [5] | IC50 [6, 11] | AC50 [6, 9] | IC50 [6, 12] | IC50 [7]

CN1C[C@@H]2CN(c3ccc(-c4ccc(-c5cn[nH]c5)c5ncsc45)nn3)C[C@@H]2C1 [Compound 198]
0.1 to 1 µM: IC50 [2]
> 10 µM: IC50 [1] | IC50 [3, 8] | AC50 [3, 9] | IC50 [3, 10] | IC50 [4] | IC50 [6, 11] | AC50 [6, 9] | IC50 [6, 12] | IC50 [7]
1 to 10 µM: IC50 [5]

c1nc2c(-c3cn[nH]c3)ccc(-c3ccc(S[C@@H]4C[C@H]5CC[C@@H](C4)N5)nn3)c2s1 [Compound 200]
> 10 µM: IC50 [2] | IC50 [3, 8] | AC50 [3, 9] | IC50 [3, 10] | IC50 [4] | IC50 [6, 11] | AC50 [6, 9] | IC50 [6, 12]
1 to 10 µM: IC50 [1] | IC50 [5] | IC50 [7]

Cc1ncc(-c2ccc(-c3ccc(N(C)C4CC(C)(C)NC(C)(C)C4)nc3)c3ncsc23)o1 [Compound 201]
> 10 µM: IC50 [1]
0.1 to 1 µM: IC50 [2]
1 to 10 µM: IC50 [3, 8] | AC50 [3, 9] | IC50 [3, 10] | IC50 [4] | IC50 [5] | IC50 [6, 11] | AC50 [6, 9] | IC50 [6, 12] | IC50 [7]

CN(c1ccc(-c2ccc(-c3cn[nH]c3)c3ncsc23)nn1)[C@H]1[C@@H]2CNC[C@@H]21 [Compound 205]
> 10 µM: IC50 [3, 8] | AC50 [3, 9] | IC50 [3, 10] | IC50 [4] | IC50 [6, 11] | AC50 [6, 9] | IC50 [6, 12] | IC50 [7]
1 to 10 µM: IC50 [1] | IC50 [2] | IC50 [5]

c1nc2c(-c3cn[nH]c3)ccc(-c3ccc(C4CCNCC4)nn3)c2s1 [Compound 206]
0.1 to 1 µM: AC50 [3, 9]
< 0.1 µM: IC50 [2]
> 10 µM: IC50 [1] | IC50 [4] | AC50 [6, 9]
1 to 10 µM: IC50 [3, 8] | IC50 [3, 10] | IC50 [5] | IC50 [6, 11] | IC50 [6, 12] | IC50 [7]

CN(c1ccc(-c2ccc(-c3cnn(C)c(=O)c3)c3scnc23)nn1)C1CC(C)(C)NC(C)(C)C1 [Compound 211]
0.1 to 1 µM: IC50 [1] | IC50 [2] | IC50 [3, 8] | AC50 [3, 9] | IC50 [3, 10] | IC50 [4] | IC50 [5] | IC50 [6, 11] | AC50 [6, 9] | IC50 [6, 12] | IC50 [7]

c1nc2c(-c3cn[nH]c3)ccc(-c3ccc(NC4CCNCC4)nn3)c2s1 [Compound 214]
1 to 10 µM: IC50 [3, 8] | IC50 [3, 10] | IC50 [5] | AC50 [6, 9] | IC50 [7]
> 10 µM: IC50 [1] | AC50 [3, 9] | IC50 [4] | IC50 [6, 11] | IC50 [6, 12]
0.1 to 1 µM: IC50 [2]

c1n[nH]cc1-c1ccc(-c2ccc(N3CC4(CCCNC4)C3)nn2)c2[nH]ncc12 [Compound 218]
> 10 µM: IC50 [1] | IC50 [2] | IC50 [3, 8] | AC50 [3, 9] | IC50 [3, 10] | IC50 [4] | IC50 [5] | IC50 [6, 11] | AC50 [6, 9] | IC50 [6, 12] | IC50 [7]

c1nc2c(-c3cn[nH]c3)ccc(-c3ccc(O[C@@H]4C[C@H]5CCC[C@@H](C4)N5)nn3)c2[nH]1 [Compound 219]
< 0.1 µM: IC50 [2] | IC50 [7]
0.1 to 1 µM: IC50 [1] | IC50 [3, 8] | AC50 [3, 9] | IC50 [3, 10] | IC50 [4] | IC50 [5] | IC50 [6, 11] | AC50 [6, 9] | IC50 [6, 12]

CC1(C)CC(Oc2ccc(-c3ccc(-c4cn[nH]c4)c4cn[nH]c34)nn2)CCN1 (stereo not drawn) [Compound 220]
0.1 to 1 µM: IC50 [2]
1 to 10 µM: IC50 [3, 8] | IC50 [3, 10] | IC50 [5] | IC50 [6, 11] | IC50 [6, 12] | IC50 [7]
> 10 µM: IC50 [1] | AC50 [3, 9] | IC50 [4] | AC50 [6, 9]

c1n[nH]cc1-c1ccc(-c2ccc(S[C@@H]3C[C@H]4CC[C@@H](C3)N4)nn2)c2[nH]ncc12 [Compound 221]
1 to 10 µM: IC50 [1] | IC50 [5] | IC50 [7]
> 10 µM: IC50 [2] | IC50 [3, 8] | AC50 [3, 9] | IC50 [3, 10] | IC50 [4] | IC50 [6, 11] | AC50 [6, 9] | IC50 [6, 12]

CN(c1ccc(-c2ccc(-c3cn[nH]c3)c3ncsc23)nn1)C1CCNCC1 [Compound 222]
1 to 10 µM: IC50 [1] | IC50 [3, 8] | AC50 [3, 9] | IC50 [3, 10] | IC50 [4] | IC50 [5] | IC50 [6, 11] | AC50 [6, 9] | IC50 [6, 12]
0.1 to 1 µM: IC50 [2] | IC50 [7]

[2H]C([2H])([2H])N(c1ccc(-c2ccc(-c3cn[nH]c3)c3ncsc23)nn1)C1CCNCC1 [Compound 223]
> 10 µM: AC50 [3, 9]
0.1 to 1 µM: IC50 [2]
1 to 10 µM: IC50 [1] | IC50 [3, 8] | IC50 [3, 10] | IC50 [4] | IC50 [5] | IC50 [6, 11] | AC50 [6, 9] | IC50 [6, 12] | IC50 [7]

CCN(c1ccc(-c2ccc(-c3cn[nH]c3)c3ncsc23)nn1)C1CCNCC1 [Compound 224]
0.1 to 1 µM: IC50 [5]
> 10 µM: AC50 [3, 9] | IC50 [4] | IC50 [6, 11] | AC50 [6, 9] | IC50 [6, 12]
1 to 10 µM: IC50 [1] | IC50 [2] | IC50 [3, 8] | IC50 [3, 10] | IC50 [7]

CCN(c1ccc(-c2ccc(-c3cn[nH]c3)c3ncsc23)nn1)C1CC(C)(C)NC(C)(C)C1 [Compound 225]
1 to 10 µM: IC50 [1] | IC50 [4] | IC50 [6, 11] | AC50 [6, 9] | IC50 [6, 12]
0.1 to 1 µM: IC50 [2] | IC50 [3, 8] | IC50 [3, 10] | IC50 [5] | IC50 [7]
> 10 µM: AC50 [3, 9]

c1n[nH]cc1-c1ccc(-c2ccc(N3CC4(CCNCC4)C3)nn2)c2[nH]ncc12 [Compound 229]
1 to 10 µM: IC50 [1] | IC50 [2] | IC50 [3, 8] | AC50 [3, 9] | IC50 [3, 10] | IC50 [4] | IC50 [5] | IC50 [6, 11] | AC50 [6, 9] | IC50 [6, 12] | IC50 [7]

c1n[nH]cc1-c1ccc(-c2ccc(OC3CCNCC3)nn2)c2[nH]ncc12 [Compound 230]
1 to 10 µM: IC50 [2] | IC50 [5] | IC50 [7]
> 10 µM: IC50 [1] | IC50 [3, 8] | AC50 [3, 9] | IC50 [3, 10] | IC50 [4] | IC50 [6, 11] | AC50 [6, 9] | IC50 [6, 12]

[2H]C([2H])([2H])N(c1ccc(-c2ccc(-c3cn[nH]c3)c3ncsc23)nn1)C1CC(C)(C)NC(C)(C)C1 [Compound 231]
< 0.1 µM: IC50 [2] | IC50 [7]
0.1 to 1 µM: IC50 [1] | IC50 [3, 8] | AC50 [3, 9] | IC50 [3, 10] | IC50 [4] | IC50 [5] | IC50 [6, 11] | AC50 [6, 9] | IC50 [6, 12]

Cn1cc(-c2ccc(-c3ccc(OC4CC(C)(C)NC(C)(C)C4)nn3)c3[nH]ncc23)cn1 [Compound 232]
1 to 10 µM: IC50 [1] | IC50 [3, 8] | IC50 [3, 10] | IC50 [4] | IC50 [5] | IC50 [6, 11] | IC50 [6, 12]
0.1 to 1 µM: IC50 [2] | AC50 [3, 9] | AC50 [6, 9] | IC50 [7]

COc1cc(-c2ccc(-c3ccc(N(C)C4CC(C)(C)NC(C)(C)C4)nn3)c3ncsc23)cnn1 [Compound 233]
0.1 to 1 µM: IC50 [1] | IC50 [2] | IC50 [3, 8] | AC50 [3, 9] | IC50 [3, 10] | IC50 [4] | IC50 [5] | IC50 [6, 11] | AC50 [6, 9] | IC50 [6, 12] | IC50 [7]

Reference: patent US20240368163A1, “COMPOUNDS AND METHODS FOR MODULATING SPLICING” (REMIX THERAPEUTICS INC., priority 2021, published 2024)
